Laboratory results taken from patent publication US8202865B2, “Oxadiazole derivatives” (Merck Serono SA, priority 2007, dated 2012).
Structures can show the parent of a compound that is named as a salt.

Columns and labels:
[1] = target: T1, S1P1 (Homo sapiens, UniProt P21453); experiment: Receptor binding assay, [33P]sphingosine 1-phosphate, membranes, WGA SPA beads; settings: membranes from CHO cells expressing S1P1; 25 pM [33P]S1P; 60 min RT
T1 construct: expressed in transfected cells; host or cells: CHO cells (membranes)
Method in brief: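 CHO-cell membranes expressing S1P1 incubated with 25 pM [33P]S1P in 50 mM HEPES pH 7.5, 5 mM MgCl2, 100 mM NaCl, 0.4% fatty acid-free BSA with WGA SPA beads for 60 min at RT. Bound radioactivity counted by scintillation proximity; specific binding defined using 1000-fold excess unlabeled S1P.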

[2] = target: T1, S1P1; experiment: 35S-GTPγS binding, S1P1 membranes; format: biochemical; settings: membranes from CHO cells expressing S1P1; 60 min 30° C.
Method in brief: (§1)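 CHO-cell membranes expressing S1P1 or S1P3 (1-10 μg) incubated with compounds in 20 mM HEPES pH 7.4, 10 mM MgCl2, 140 mM NaCl, saponin, 0.2% BSA, 1.7 μM GDP and [35S]-GTPγS (20 μl of 1.5 nM added), 60 min at 30° C. Bound radioactivity expressed as % of S1P activation.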

[3] = target: T2, S1P3 (Homo sapiens, UniProt Q99500); experiment: 35S-GTPγS binding, S1P3 membranes; format: biochemical; settings: membranes from CHO cells expressing S1P3; 60 min 30° C.
T2 construct: expressed in transfected cells; host or cells: CHO cells (membranes)
Method in brief: as §1

T2 sequence (Q99500 whole entry, species assumed): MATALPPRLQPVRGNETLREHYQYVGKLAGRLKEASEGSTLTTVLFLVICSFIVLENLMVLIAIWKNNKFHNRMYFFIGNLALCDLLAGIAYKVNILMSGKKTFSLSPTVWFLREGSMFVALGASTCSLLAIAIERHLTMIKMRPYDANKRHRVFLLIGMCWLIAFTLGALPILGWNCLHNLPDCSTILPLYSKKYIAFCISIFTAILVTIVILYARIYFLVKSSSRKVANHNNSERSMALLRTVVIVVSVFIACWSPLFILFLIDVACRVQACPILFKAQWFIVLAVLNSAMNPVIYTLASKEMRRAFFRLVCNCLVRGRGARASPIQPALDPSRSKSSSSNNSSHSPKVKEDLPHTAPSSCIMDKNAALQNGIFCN
T1 sequence (P21453 whole entry, species assumed): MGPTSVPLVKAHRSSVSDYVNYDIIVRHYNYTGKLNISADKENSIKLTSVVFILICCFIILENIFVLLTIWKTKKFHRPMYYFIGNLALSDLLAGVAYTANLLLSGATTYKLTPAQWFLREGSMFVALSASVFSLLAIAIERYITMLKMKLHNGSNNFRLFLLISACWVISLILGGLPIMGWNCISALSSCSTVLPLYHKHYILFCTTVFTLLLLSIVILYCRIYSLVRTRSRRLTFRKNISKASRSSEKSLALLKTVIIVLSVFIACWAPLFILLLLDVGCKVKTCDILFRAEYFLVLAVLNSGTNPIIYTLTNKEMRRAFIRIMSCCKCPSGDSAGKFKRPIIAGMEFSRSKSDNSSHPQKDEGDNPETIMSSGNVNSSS

Ki [1]	EC50 [2]	EC50 [3]	SMILES
1 nM	3.3 nM	4490 nM	COCc1cc(-c2nc(-c3cccc(C(=O)NCCNC(C)=O)c3)no2)ccc1-c1ccccc1C [Example 184, N-[2-(acetylamino)ethyl]-3-{5-[2-(methoxymethyl)-2′-methylbiphenyl-4-yl]-1,2,4-oxadiazol-3-yl}benzamide]
0.8 nM	1.1 nM	1620 nM	COCc1cc(-c2nc(-c3cccc(CN(C)CCO)c3)no2)ccc1-c1ccccc1C [Example 186, 2-[(3-{5-[2-(methoxymethyl)-2′-methylbiphenyl-4-yl]-1,2,4-oxadiazol-3-yl}benzyl)(methyl)amino]ethanol, Hydrochloride salt]
1 nM	2.1 nM	574 nM	COCc1cc(-c2nc(-c3cccc(CO)c3)no2)ccc1-c1ccccc1C [Example 189, (3-{5-[2-(methoxymethyl)-2′-methylbiphenyl-4-yl]-1,2,4-oxadiazol-3-yl}phenyl)methanol]
1.6 nM	1 nM	1720 nM	COCc1cc(-c2nc(-c3cccc(S(C)(=O)=O)c3)no2)ccc1-c1ccccc1C [Example 194, 5-[2-(methoxymethyl)-2′-methylbiphenyl-4-yl]-3-[3-(methylsulfonyl)phenyl]-1,2,4-oxadiazole]
